Reference: patent US20170281710A1, “USE OF INHIBITORS OF BINDING BETWEEN A PAR-1 RECEPTOR AND ITS LIGANDS FOR THE TREATMENT OF GLIOMA” (University of Rochester, priority 2013, published 2017)
“Also recorded” adds a separate entry of the source.

Tests used:
angiogenesis = details: literature; cited from earlier work
[1] = system: A2B5+ glioma TPCs (GCL) isolated from GBM-derived cell lines; assay: in vitro expansion of A2B5+ glioma TPCs (GCL), cell count after escalating doses; format: cell-based, human; details: for concentration at which a significant decrease in number of A2B5+ TPCs was observed: escalating doses, vs vehicle; for effect on growth / number (in vitro expansion) of A2B5+ glioma TPCs: serum-free media with FGF, EGF, PDGF, 4 days after administration, vs DMSO vehicle
Method: After dissociation, unsorted and A2B5 selected primary cells derived from tumor samples were seeded in a 6 well cell suspension plate at 100,000-200,000 cells/ml in DMEM/F12/N1 media containing FGF, EGF and PDGF (20 ng/ml) as previously described (Nunes et al., “Identification and Isolation of Multipotential Neural Progenitor Cells from the Subcortical White Matter of the Adult Human Brain,” Nat Med 9:439-447 (2003), which is hereby incorporated by reference in their entirety). Growth factors and media were renewed 3 times per week. […] The cells were tumorigenic in vivo after transplantation into the brains of immunodeficient mice, in which they generated tumors that recapitulated the histological and phenotypic features of the parental GBM.
(§1) Dabigatran etexilate (Pradaxa) was obtained as 150 mg capsules from Boehringer Ingelheim (Ingelheim, Germany) for in vivo experiments. Each capsule was freshly dissolved in 4 ml of acidic water to yield 37.5 mg/ml. Dabigatran etexilate was dosed depending of the body weight of the mouse, twice a day, using oral gavage. For in vitro analysis, the chemical compound dabigatran etexilate (BIER-1048) was purchased from Cedarlane USA (S2154-5 mg) and dissolved in dimethylsulfoxide (DMSO) following manufacturer's instructions.
(§2) The selective PAR-1 antagonist SCH79797 was purchased from Tocris Bioscience (Ellisville, Mo., USA) and dissolved in dimethylsulfoxide (DMSO) following manufacturer's instructions. The selective oral PAR-1 inhibitor SCH 530348 (Vorapaxar) was purchased from Axon medchem (Axon 1755) and reconstituted following manufacturer's instructions.
(§3) The various physiological and pathophysiological effects exerted by PAR-1 activation have led to the development of multiple selective PAR-1 antagonists over the years (Garcia-Lopez et al., “Thrombin-Activated Receptors: Promising Targets for Cancer Therapy?” Curr Med Chem 17:109-128 (2010), which is hereby incorporated by reference in its entirety). […] On that basis, it was further asked whether pharmacological inhibition of PAR-1 can slow the growth of glioma cells and A2B5^+ TPCs. Adherent glioma cells grown in 10% Serum (U87, U251) and A2B5^+ TPCs derived from primary GBM cell lines cultured in SFM were subjected to escalating doses of the PAR-1 antagonists SCH-79797.
(§4) Indeed, SCH-530348 represents currently the most advanced and orally available specific PAR-1 antagonist, and has been evaluated in two large phase III clinical trials in patients with cardiovascular disease. […] To examine its effect on glioma cells and TPCs, SCH-530348 was administrated with escalating doses to glioma cells following the same paradigm previously described. […] Importantly, normal adult astrocytes were not affected by SCH-530348 administration (FIG. 6C).
(§5) Given the availability of already approved and relatively safe drugs by which the thrombin may be antagonized, the effect of pharmacological inhibition of thrombin using the oral inhibitor dabigatran etexilate (dabigatran) in vitro was next examined. Dabigatran (marketed as Pradaxa) is an oral inhibitor of thrombin, approved for use in patients with or at risk of thrombotic disorders (Lee and Ansell, “Direct Thrombin Inhibitors,” Br J Clin Pharmacol 72:581-592 (2011); Stangier, “Clinical Pharmacokinetics and Pharmacodynamics of the Oral Direct Thrombin Inhibitor Dabigatran Etexilate,” Clin Pharmacokinet 47:285-295 (2008), which are hereby incorporated by reference in their entirety). […] To examine whether dabigatran treatment might suppress the growth of glial neoplasms, glioma cells and TPCs were treated with escalating doses of dabigatran and counted 4 days after drug administration.

[2] = system: several human and mouse cell lines; details: literature; cited from earlier work
[3] = system: normal astrocytes derived from the fetal human brain; assay: growth of normal fetal astrocytes in vitro; format: cell-based; details: for effect on growth of normal fetal astrocytes / concentrations at which growth of normal fetal astrocytes is slightly decreased: 4 days after administration
[4] = system: adherent glioma cells (U87, U251); assay: in vitro expansion of adherent glioma cells cultured with 10% serum; format: cell-based, human; details: for effect on growth / number of adherent glioma cells (U87, U251): 4 days after administration, vs DMSO vehicle; for concentration at which a significant decrease in number of adherent glioma cells was observed: escalating doses
Method: as §1, §2, §3, §4, §5

[5] = system: normal astrocytes derived from the adult human brain; assay: growth of normal adult astrocytes in vitro; format: cell-based; details: 4 days after administration
[6] = literature; cited from earlier work
[7] = stable patients with a history of myocardial infarction; literature; cited from earlier work
breast carcinoma cells = details: literature; cited from earlier work
[8] = system: A2B5+ glioma TPCs (GCL) subcutaneous xenograft; assay: subcutaneous heterotopic A2B5+ glioma TPC xenograft, tumor volume; format: in vivo, immunodeficient NOG mice; details: 37.5 mg/kg twice daily, oral gavage, starting 11 days post-subcutaneous injection, NOG mice
Method: as §1
Glioma cells and/or A2B5^+ TPCs (1-4E^+06 cells/animal) were collected, resuspended in 75 μl of media, and mixed (1:1) with Matrigel (9.8 mg/ml), prior to subcutaneous injection (150 μl, final volume) into the flanks of immunodeficient NOG mice (5-8 weeks) (1-4E^+06 cells/animal). Subcutaneous tumor growth was measured every other day morphometrically using vernier calipers, and tumor volumes were estimated according to the formula a^2b/2, where a and b are the shorter and longer diameters of the tumor, respectively. […] The remaining mice were gavaged at the same times with vehicle control (acidic water). […]
To translate these findings into a clinically relevant approach, the anti-tumor activity of dabigatran was further evaluated in vivo. […] Tumor volume was then measured every other day using vernier calipers. […]

**Q.** For CC(C)c1ccc(Cn2ccc3c4c(N)nc(NC5CC5)nc4ccc32)cc1 [SCH79797, N3-Cyclopropyl-7-[[4-(1-Methylethyl)Phenyl]Methyl]-7H-Pyrrolo[3,2-f]Quinazoline-1,3-Diamine], which “anti-angiogenic activity in vivo” value (angiogenesis) is on record?
**A.** potent anti-angiogenic in vivo

**Q.** What about the “concentration at which a significant decrease in number of A2B5+ TPCs was observed” value [1] of the same compound?
**A.** ≥ 0.1 µM

**Q.** What about the “effect on growth / number (in vitro expansion) of A2B5+ glioma TPCs” value [1] of the same compound?
**A.** potent inhibitors of glioma growth in vitro; also recorded: suppressed the growth and proliferation of glioma TPCs in vitro; also recorded: significantly decreases the number of GCL and glioma cells in a dose dependent manner

**Q.** What about the “effect on growth / number (in vitro expansion) of A2B5+ glioma TPCs” value ([1]; listed as SCH-79797) of the same compound?
**A.** significant concentration dependent inhibition of cell growth

**Q.** What about the “effect on proliferation, migration and growth of several human and mouse cell lines” value [2] of the same compound?
**A.** showed anti-proliferative effects, blocked cell migration and growth

**Q.** And the “effect on growth of normal fetal astrocytes” value [3]?
**A.** did not affect the growth of normal fetal and adult astrocytes

**Q.** What about the “effect on growth of normal fetal astrocytes” value ([3]; listed as SCH-79797) of the same compound?
**A.** able to slow the growth of normal fetal astrocytes

**Q.** And the “concentration at which a significant decrease in number of fetal astrocytes was observed” value ([3]; escalating doses)?
**A.** ≥ 0.5 µM

**Q.** And the “effect on growth / number of adherent glioma cells (U87, U251)” value (“effect on growth / number … (U87, U251)” for short) [4]?
**A.** significantly decreases the number of GCL and glioma cells in a dose dependent manner

**Q.** What about the “effect on growth / number … (U87, U251)” value ([4]; listed as SCH-79797) of the same compound?
**A.** significant concentration dependent inhibition of cell growth

**Q.** What about the “concentration at which a significant decrease in number of adherent glioma cells was observed” value [4] of the same compound?
**A.** ≥ 0.1 µM

**Q.** And the “effect on growth of normal adult astrocytes” value [5]?
**A.** did not affect the growth of normal fetal and adult astrocytes

**Q.** What about the “effect on growth of normal adult astrocytes” value ([5]; listed as SCH-79797) of the same compound?
**A.** no significant differences

**Q.** With CCOC(=O)N[C@@H]1CC[C@@H]2[C@@H](C1)C[C@H]1C(=O)O[C@H](C)[C@H]1[C@H]2/C=C/c1ccc(-c2cccc(F)c2)cn1 [SCH530348, Vorapaxar] as the compound, how does the “concentration at which a significant decrease in number of A2B5+ TPCs was observed” value [1] read?
**A.** ≥ 5 µM

**Q.** And the “effect on growth / number (in vitro expansion) of A2B5+ glioma TPCs” value [1]?
**A.** potent inhibitors of glioma growth in vitro; also recorded: suppressed the growth and proliferation of glioma TPCs in vitro; also recorded: significantly decreases the number of GCL and glioma cells in a dose dependent manner

**Q.** And the “effect on growth / number (in vitro expansion) of A2B5+ glioma TPCs” value ([1]; listed as SCH-530348)?
**A.** significantly reduced the growth

**Q.** And the oral bioavailability [6]?
**A.** excellent

**Q.** And the safety [6]?
**A.** excellent

**Q.** What about the “concentrations at which growth of normal fetal astrocytes is slightly decreased” value [3] of the same compound?
**A.** > 0.5 µM

**Q.** And the “effect on growth of normal fetal astrocytes” value [3]?
**A.** slightly decreases the growth of normal fetal astrocytes

**Q.** What about the “effect on growth / number … (U87, U251)” value [4] of the same compound?
**A.** significantly decreases the number of GCL and glioma cells in a dose dependent manner

**Q.** What about the “effect on growth / number … (U87, U251)” value ([4]; listed as SCH-530348) of the same compound?
**A.** significant decrease in the number of glioma cells

**Q.** And the “concentration at which a significant decrease in number of adherent glioma cells was observed” value [4]?
**A.** 25 µM

**Q.** What about the “effect on growth of normal adult astrocytes” value [5] of the same compound?
**A.** did not affect the growth of normal adult astrocytes

**Q.** What about the “effect on growth of normal adult astrocytes” value ([5]; listed as SCH-530348) of the same compound?
**A.** not affected

**Q.** And the “major cardiovascular thrombotic events” value [7]?
**A.** significantly reduced major cardiovascular thrombotic events

**Q.** For CCCCCCOC(=O)NC(=N)c1ccc(NCc2nc3cc(C(=O)N(CCC(=O)OCC)c4ccccn4)ccc3n2C)cc1 [dabigatran etexilate], which breast cancer progression (breast carcinoma cells) is on record?
**A.** reduce breast cancer progression

**Q.** And the “invasiveness of breast carcinoma cells in mice” value (breast carcinoma cells)?
**A.** inhibits the invasiveness of breast carcinoma cells

**Q.** What about the “concentration at which a significant decrease in number of A2B5+ TPCs was observed” value [1] of the same compound?
**A.** 5 µM

**Q.** What about the “effect on growth / number (in vitro expansion) of A2B5+ glioma TPCs” value [1] of the same compound?
**A.** suppressed the growth and proliferation of glioma TPCs in vitro

**Q.** And the “effect on growth / number (in vitro expansion) of A2B5+ glioma TPCs” value ([1]; listed as Dabigatran etexilate)?
**A.** significantly decreases the number of GCL and glioma cells in a dose dependent manner

**Q.** What about the “effect on growth / number (in vitro expansion) of A2B5+ glioma TPCs” value ([1]; listed as dabigatran) of the same compound?
**A.** decreased in vitro expansion in a dose dependent manner; also recorded: potent inhibitors of glioma growth in vitro

**Q.** And the “effect on tumor volumes compared to vehicle controls” value [8]?
**A.** significant reduction in tumor volumes; also recorded: significantly suppressed glioma growth; also recorded: significantly reduced tumor volumes

**Q.** And the “effect on tumor volumes compared to vehicle controls” value ([8]; listed as Pradaxa)?
**A.** significantly reduce the tumor volumes

**Q.** What about the “concentrations at which growth of normal fetal astrocytes is slightly decreased” value [3] of the same compound?
**A.** > 0.5 µM

**Q.** What about the “effect on growth of normal fetal astrocytes” value ([3]; listed as Dabigatran etexilate) of the same compound?
**A.** slightly decreases the growth of normal fetal astrocytes

**Q.** What about the “effect on growth of normal fetal astrocytes” value ([3]; listed as dabigatran) of the same compound?
**A.** not significantly affected

**Q.** And the “effect on growth / number … (U87, U251)” value ([4]; listed as Dabigatran etexilate)?
**A.** significantly decreases the number of GCL and glioma cells in a dose dependent manner

**Q.** What about the “effect on growth / number … (U87, U251)” value ([4]; listed as dabigatran) of the same compound?
**A.** decreased in vitro expansion in a dose dependent manner

**Q.** What about the “concentration at which a significant decrease in number of adherent glioma cells was observed” value [4] of the same compound?
**A.** ≥ 10 µM

**Q.** And the “effect on growth of normal adult astrocytes” value ([5]; listed as Dabigatran etexilate)?
**A.** did not affect the growth of normal adult astrocytes

**Q.** And the “effect on growth of normal adult astrocytes” value ([5]; listed as dabigatran)?
**A.** not significantly affected
